US10869931B2, “Polyethylene glycol-modified angiogenesis inhibitor HM-1 and application thereof” (NANJING ANJI BIOLOGICAL TECHNOLOGY CO.,LTD, priority 2016, dated 2020)
Where no end group is shown, it is not given here.

Key:
[1] = test system: Ovarian cancer tumor cells; test: MTT proliferation inhibition, ovarian cancer cells; type: cell-based, human; set-up: concentration or dose not given beside the values; details: 48 h
Description: (§1) The activity of mPEG-HM-1 to inhibit the growth of various tumor cells was examined by MTT assay. The tumor cells were cultured to a concentration of 90% or more in a 37° C., 5% CO2 incubator and collected by trypsinization. The cells were resuspended in the culture medium and counted under a microscope to adjust the cell concentration to 2×10^4 cells/mL, the cell suspension was inoculated into a 96-well plate at 100 μL/well and incubated overnight at 37° C. in a 5% CO2 incubator. mPEG-HM-1 was diluted with the culture solution to each predetermined concentration. Docetaxel is diluted to the final concentration with the culture medium. After the cells were fully attached, each dilution was added to a 96-well plate (100 μL/well). The mPEG-HM-1 dilution was added as a drug-administered group, and docetaxel was added as a positive control group, and a culture solution without any drug was used as a negative control group. Incubate for 48 h at 37° C. in a 5% CO2 incubator. 5 mg/mL of MTT was added to a 96-well plate at 20 μL per well, and incubation was continued for 4 hours. The medium was aspirated, dissolved in 150 μL of DMSO per well, and gently mixed by shaking for 10 min. The absorbance was measured at a measurement wavelength of 570 nm and a reference wavelength of 630 nm using a microplate reader, and the rate of growth inhibition (proliferation inhibition, PI) was calculated. The formula is as follows: PI (%)=1−administration group/negative group
(§2) The test was repeated 3 times independently, and the results obtained by the test were expressed as mean±SD, and the test results are shown in Table 15 to Table 18.

sarcoma tumor cells = test: MTT proliferation inhibition, sarcoma cells; type: cell-based, human; set-up: concentration or dose not given beside the values; details: 48 h
Description: as §1, §2

mouse spleen lymphocytes = test: ConA-stimulated mouse spleen lymphocyte proliferation (MTT); type: cell-based; details: ConA 5 μg/mL, 48 h
Description: Tris-NH4Cl was used to break the red blood cells, and the cells were allowed to stand in an ice water bath for 4 min, centrifuged (1000 rpm×5 min), the supernatant was discarded, and the cells were washed twice with sterile PBS. Finally, cells were suspended in RPMI 1640 medium (5 mL) supplemented with 10% calf serum, counted, adjusted to a cell concentration of 5×10^6/mL, and cultured in a 96-well culture plate The test group consisted of blank control group, concanavalin A (ConA) group, dexamethasone (Dex) group (0.02 mg/mL) and mPEG-HM-1 group. […] The cells were cultured in a 37° C. cell culture chamber for 48 h. After the completion of the culture, 20 μL of MTT was added to each well, and the culture was continued for 4 h. Finally, all the solutions in each well were discarded, 100 μL of DMSO was added to each well, and the mixture was shaken and detected by a microplate reader OD value at 570 nm, 5 parallels per hole.

[2] = test system: choroidal neovascularization in BN rats; test: Laser-induced choroidal neovascularization in BN rats (FFA); type: in vivo, rat
Description: 6-8 weeks old male BN rats were anesthetized with 846 compound anesthetic 0.5 mL/kg administered intraperitoneally. The eye drops of compound tropamide eyes were used 5 minutes before laser photocoagulation, and the pupils of both eyes were fully scattered. Fix animals, with the aid of −53.00 D contact lens, around the optic disc and along the same distance from the optic disc 2PD, the laser beam photocoagulation were performed to make a total of 8 photo-condensation spots, with laser wavelength of 647.1 nm, power of 350 mW, photocoagulation spot diameter and time were 50 μm and 0.05 s, respectively. Immediately after photocoagulation, fundus photography was performed. FFA, histopathology and transmission electron microscopy were performed at 3, 7, 14, 21, and 28 days after photocoagulation.
It was confirmed by fundus photography and FFA examination that the fluorescein leakage of photocoagulation peaked on the 21st day after photocoagulation, and histopathological examination was performed at the same time. […] A large number of neovascular vessels were seen, and red blood cells were visible in the lumen. Microscopically, capillary cells in the choroidal melanocytes were cohesively altered and endothelial cells aggregated.
Rats that were successfully modeled were randomly divided into groups of 5 rats each. They were labeled as negative control group, mPEG-SC-HM-1 treatment group, mPEG2-NHS-HM-1 treatment group, mPEG-ALD-HM-1 treatment group and mPEG-bALD-HM-1 treatment group, respectively. Saline, mPEG-HM-1 (see Table 53 for dosing) was administered intravitreally, once daily for 1 week. FFA examinations were performed 3 days, 7 days, 14 days, and 28 days after administration of the modified peptides.

[3] = Day 3 after administration, 25 μg intravitreally once daily for 1 week (Table 53)
[4] = Day 3 after administration, 25 μg intravitreally once daily for 1 week (Table 53), total spots 290-296 by table
[5] = Day 7, 25 μg intravitreally once daily for 1 week (Table 53)
[6] = Day 7, 25 μg intravitreally once daily for 1 week (Table 53), total spots 182-188 by table
[7] = Day 14, 25 μg intravitreally once daily for 1 week (Table 53)
[8] = Day 14, 25 μg intravitreally once daily for 1 week (Table 53), total spots 132-138 by table
[9] = Day 28, 25 μg intravitreally once daily for 1 week (Table 53)
[10] = Day 28, 25 μg intravitreally once daily for 1 week (Table 53), total spots 67-71 by table
[11] = Day 3 after administration, 200 μg intravitreally once daily for 1 week (Table 53)
[12] = Day 3 after administration, 200 μg intravitreally once daily for 1 week (Table 53), total spots 290-296 by table
[13] = Day 7, 200 μg intravitreally once daily for 1 week (Table 53)
[14] = Day 7, 200 μg intravitreally once daily for 1 week (Table 53), total spots 182-188 by table
[15] = Day 14, 200 μg intravitreally once daily for 1 week (Table 53)
[16] = Day 14, 200 μg intravitreally once daily for 1 week (Table 53), total spots 132-138 by table
[17] = Day 28, 200 μg intravitreally once daily for 1 week (Table 53)
[18] = Day 28, 200 μg intravitreally once daily for 1 week (Table 53), total spots 67-71 by table

Substance | rate of growth inhibition [1] [%] | rate of growth inhibition (sarcoma tumor cells) [%] | A570 nm/A630 nm (mouse spleen lymphocytes; 5 μg/mL) | Inhibition Rate of spleen lymphocyte proliferation (mouse spleen lymphocytes; 5 μg/mL) [%] | A570 nm/A630 nm (mouse spleen lymphocytes; 10 μg/mL) | Inhibition Rate of spleen lymphocyte proliferation (mouse spleen lymphocytes; 10 μg/mL) [%] | A570 nm/A630 nm (mouse spleen lymphocytes; 20 μg/mL) | Inhibition Rate of spleen lymphocyte proliferation (mouse spleen lymphocytes; 20 μg/mL) [%] | CNV Incidence rate [2, 3] [%] | leakage Spots # [2, 4] | CNV Incidence rate [2, 5] [%] | leakage Spots # [2, 6] | CNV Incidence rate [2, 7] [%] | leakage Spots # [2, 8] | CNV Incidence rate [2, 9] [%] | leakage Spots # [2, 10] | A570 nm/A630 nm (mouse spleen lymphocytes; 40 μg/mL) | Inhibition Rate of spleen lymphocyte proliferation (mouse spleen lymphocytes; 40 μg/mL) [%] | A570 nm/A630 nm (mouse spleen lymphocytes; 80 μg/mL) | Inhibition Rate of spleen lymphocyte proliferation (mouse spleen lymphocytes; 80 μg/mL) [%] | also measured
mPEG-SC5k-Arg-Gly-Ala-Asp-Arg-Ala-Gly-Gly-Gly-Gly-Arg-Gly-Asp ({mPEG‑SC 5 kDa}-RGADRAGGGGRGD) [mPEG-SC5k-HM-1] | 60.81 ± 20.27 | 39.42 ± 11.15 | 0.6253 ± 0.0947 | 9.32 | 0.5480 ± 0.1081 | 20.54 | 0.4954 ± 0.1219 | 28.16 | 54.73 | 162 | 53.19 | 100 | 48.15 | 65 | 47.76 | 32 |  |  |  |  | 
mPEG-SC10k-Arg-Gly-Ala-Asp-Arg-Ala-Gly-Gly-Gly-Gly-Arg-Gly-Asp ({mPEG‑SC 10 kDa}-RGADRAGGGGRGD) [mPEG-SC10k-HM-1] | 65.89 ± 23.37 | 45.49 ± 11.89 |  |  | 0.6234 ± 0.0976 | 9.60 | 0.5488 ± 0.1052 | 20.42 |  |  |  |  |  |  |  |  | 0.4788 ± 0.1282 | 30.57 |  |  | incidence of CNV ([2]; BN rats, 28 days after administration, intravitreal once daily for 1 week): 38.81%; CNV Incidence rate ([2]; Day 3 after administration, 50 μg intravitreally once daily for 1 week (Table 53)): 49.66%; leakage Spots # ([2]; Day 3 after administration, 50 μg intravitreally once daily for 1 week (Table 53), total spots 290-296 by table): 147; CNV Incidence rate ([2]; Day 7, 50 μg intravitreally once daily for 1 week (Table 53)): 45.74%; leakage Spots # ([2]; Day 7, 50 μg intravitreally once daily for 1 week (Table 53), total spots 182-188 by table): 86; CNV Incidence rate ([2]; Day 14, 50 μg intravitreally once daily for 1 week (Table 53)): 42.96%; leakage Spots # ([2]; Day 14, 50 μg intravitreally once daily for 1 week (Table 53), total spots 132-138 by table): 58; CNV Incidence rate ([2]; Day 28, 50 μg intravitreally once daily for 1 week (Table 53)): 38.81%; leakage Spots # ([2]; Day 28, 50 μg intravitreally once daily for 1 week (Table 53), total spots 67-71 by table): 26
mPEG-SC40k-Arg-Gly-Ala-Asp-Arg-Ala-Gly-Gly-Gly-Gly-Arg-Gly-Asp ({mPEG‑SC 40 kDa}-RGADRAGGGGRGD) [mPEG-SC40k-HM-1] | 68.46 ± 13.19 | 45.26 ± 11.61 |  |  |  |  |  |  |  |  |  |  |  |  |  |  | 0.6212 ± 0.0972 | 9.92 | 0.5493 ± 0.1056 | 20.34 | A570 nm/A630 nm (mouse spleen lymphocytes; 160 μg/mL): 0.4794 ± 0.1214; Inhibition Rate of spleen lymphocyte proliferation (mouse spleen lymphocytes; 160 μg/mL): 30.48%; CNV Incidence rate [2, 11]: 50.68%; leakage Spots # [2, 12]: 150; CNV Incidence rate [2, 13]: 50.00%; leakage Spots # [2, 14]: 94; CNV Incidence rate [2, 15]: 44.44%; leakage Spots # [2, 16]: 60; CNV Incidence rate [2, 17]: 43.28%; leakage Spots # [2, 18]: 29
mPEG-bALD5k-Arg-Gly-Ala-Asp-Arg-Ala-Gly-Gly-Gly-Gly-Arg-Gly-Asp ({mPEG‑bALD 5 kDa}-RGADRAGGGGRGD) [mPEG-bALD5k-HM-1] | 66.76 ± 18.59 | 41.42 ± 10.03 | 0.6257 ± 0.1022 | 9.82 | 0.5645 ± 0.1114 | 18.64 | 0.4957 ± 0.1286 | 28.56 | 55.29 | 162 | 52.43 | 97 | 47.10 | 65 | 46.38 | 32 |  |  |  |  | 
mPEG-bALD20k-Arg-Gly-Ala-Asp-Arg-Ala-Gly-Gly-Gly-Gly-Arg-Gly-Asp ({mPEG‑bALD 20 kDa}-RGADRAGGGGRGD) [mPEG-bALD20k-HM-1] | 75.65 ± 20.09 | 50.91 ± 10.64 |  |  |  |  | 0.6104 ± 0.1005 | 12.02 |  |  |  |  |  |  |  |  | 0.4988 ± 0.1173 | 28.10 | 0.4453 ± 0.1054 | 35.82 | CNV Incidence rate ([2]; Day 3 after administration, 100 μg intravitreally once daily for 1 week (Table 53)): 51.54%; leakage Spots # ([2]; Day 3 after administration, 100 μg intravitreally once daily for 1 week (Table 53), total spots 290-296 by table): 151; CNV Incidence rate ([2]; Day 7, 100 μg intravitreally once daily for 1 week (Table 53)): 49.19%; leakage Spots # ([2]; Day 7, 100 μg intravitreally once daily for 1 week (Table 53), total spots 182-188 by table): 91; CNV Incidence rate ([2]; Day 14, 100 μg intravitreally once daily for 1 week (Table 53)): 45.65%; leakage Spots # ([2]; Day 14, 100 μg intravitreally once daily for 1 week (Table 53), total spots 132-138 by table): 63; CNV Incidence rate ([2]; Day 28, 100 μg intravitreally once daily for 1 week (Table 53)): 40.58%; leakage Spots # ([2]; Day 28, 100 μg intravitreally once daily for 1 week (Table 53), total spots 67-71 by table): 28
mPEG-bALD40k-Arg-Gly-Ala-Asp-Arg-Ala-Gly-Gly-Gly-Gly-Arg-Gly-Asp ({mPEG‑bALD 40 kDa}-RGADRAGGGGRGD) [mPEG-bALD40k-HM-1] | 72.66 ± 19.03 | 47.90 ± 10.70 |  |  |  |  |  |  |  |  |  |  |  |  |  |  | 0.6191 ± 0.0986 | 10.77 | 0.5089 ± 0.1230 | 26.65 | A570 nm/A630 nm (mouse spleen lymphocytes; 160 μg/mL): 0.4848 ± 0.1146; Inhibition Rate of spleen lymphocyte proliferation (mouse spleen lymphocytes; 160 μg/mL): 30.12%; CNV Incidence rate [2, 11]: 52.22%; leakage Spots # [2, 12]: 153; CNV Incidence rate [2, 13]: 50.81%; leakage Spots # [2, 14]: 94; CNV Incidence rate [2, 15]: 47.10%; leakage Spots # [2, 16]: 65; CNV Incidence rate [2, 17]: 42.03%; leakage Spots # [2, 18]: 29
